Experimental data taken from patent US9579328B2, “Prostaglandin and vasoconstrictor pharmaceutical compositions and methods of use” (ALLERGAN, INC., priority 2012, dated 2017).
Counter-ions that a name gives are not always drawn.

Assays:
[1] = tested on: human cultured conjunctiva-derived epithelial cells; details: cited from earlier work; for direct stimulation of inflammatory pathways involving adhesion molecules or class II antigens: in vitro; for toxicity observed: primarily related to the concentration of benzalkonium chloride
[2] = tested on: eyes of conscious Beagle dogs; details: cited from earlier work; for effect of L-NAME on elicited ocular surface hyperemia: L-NAME 1% treated eyes, 0-6 h; for conjunctival hyperemia or adverse ocular effects at baseline (time 0): 1% (w/v) topical, dog eyes
rabbit eye conjunctiva = details: topical dose of 10 μg (0.03%, 30 μl); cited from earlier work
[3] = tested on: rabbit isolated jugular veins; details: rabbit jugular vein; cited from earlier work
[4] = tested on: rabbit isolated jugular veins; assay: Vasorelaxation in histamine-precontracted rabbit isolated jugular veins; assay type: cell-based
Text: FIG. 3. Concentration-response curves for (FIG. 3A) bimatoprost and (FIG. 3B) latanoprost free acid in histamine-precontracted endothelium-intact and endothelium-denuded rabbit isolated jugular veins. Results are expressed as mean±S.E.M. of 5-6 animals. FIG. 3A adapted from Chen J et al., Invest Ophthalmol Vis Sci 2004; 45:ARVO E-Abstract 2609; FIG. 3B extends results reported in Chen J et al., Invest Ophthalmol Vis Sci 2004; 45:ARVO E-Abstract 2609; and Pharmacology Review of New Drug Application 21-275. FDA/Center for Drug Evaluation and Research. 2001;Part 1 and Part 2:1-107. Available online at http://www.fda.gov/cder/foi/nda/2001/21275_Lumigan.htm.
FIG. 4. Concentration-response curves for (FIG. 4A) bimatoprost and (FIG. 4B) latanoprost free acid in the presence or absence of indomethacin in endothelium-intact rabbit isolated jugular veins. Results are expressed as mean±S.E.M. of 7 animals and extend previous results reported in Pharmacology Review of New Drug Application 21-275. FDA/Center for Drug Evaluation and Research. 2001;Part 1 and Part 2:1-107. Available online at http://www.fda.gov/cder/foi/nda/2001/21275_Lumigan.htm.
FIG. 5. Concentration-response curves for (FIG. 5A) bimatoprost and (FIG. 5B) latanoprost free acid in the presence of 100 μM L-NAME or 100 (μM D-NAME control in endothelium-intact rabbit isolated jugular veins. Results are expressed as mean±S.E.M. of 6 animals. *P≦0.05, compared to responses in D-NAME pretreated tissues at the same concentration, paired t-test.
The pharmacological mechanism of ocular surface hyperemia elicited by bimatoprost and latanoprost was investigated using the rabbit jugular vein preparation as a quantitative in vitro model (Chen J. et al., Br J Pharmacol 1995; 116:3035-3041). In these studies, tissues were suspended in jacketed organ baths containing Krebs buffer with 1 μM indomethacin (endothelium-intact and -denuded) or in its absence (endothelium-intact) and precontracted with 3 μM histamine. Vasorelaxant and contractile activity were determined as a percentage (%) of the control tone elicited by histamine. Statistical comparisons for the vasorelaxant activity consisted of testing for significance of difference at each of the concentrations tested using the Student'-s t-test for unpaired samples (indomethacin vs no indomethacin) and paired samples (L-NAME vs D-NAME). Differences were considered statistically significant for P-values ≦0.05.
Indomethacin is a cyclooxygenase inhibitor that is routinely used in prostanoid receptor assays (Chen J et al., Current protocols in pharmacology. New York: John Wiley & Sons, Inc., 2001; 4.18.1-4.18.41). Studies of intact and viable isolated tissues, such as the rabbit jejunum (Ferreira S H, Herman A G, Vane J R., Br J Pharmacol 1976; 56:469-477) and human bronchial muscle (Haye-Legrand I, Cerrina J, Raffestin B et al., J Pharmacol Exp Ther 1986; 239:536-541), found the basal output of prostaglandins to be 8-23 pg/mg of tissue at baseline or over 30 min collection periods. In the presence of 1.7 and 2.79 μM indomethacin, the amounts of prostaglandins generated in isolated tissues become negligible (Botting J H, Salzmann R., Br J Pharmacol 1974; 50:119-124; Haye-Legrand I, Cerrina J, Raffestin B et al., J Pharmacol Exp Ther 1986; 239:536-541). The 1 μM concentration of indomethacin in the tissue bath, in our experience, is sufficient to prevent biosynthesis of prostanoids within isolated vascular tissue preparations (Alster P, Wennmalm Å., Eur J Pharmacol 1983; 86:441-446; Chen J et al., Current protocols in pharmacology. New York: John Wiley & Sons, Inc., 2001; 4.18.1-4.18.41). At substantially higher concentrations, indomethacin has been reported to lose selectivity for prostanoid biosynthesis inhibition (Aboulafia J et al., Br J Pharmacol 1976; 58:223-228; Goodfriend T L, Simpson R U., Br J Pharmacol 1981; 72:247-255; Northover B J, Br J Pharmacol 1971; 41:540-551; Sawdy R et al., Br J Pharmacol 1998; 125:1212-1217). […]

[5] = tested on: patients with glaucoma or ocular hypertension; details: 1 year; bimatoprost 0.03% once or twice daily, timolol maleate 0.5% twice daily; subset of 310 patients; cited from earlier work
[6] = bimatoprost 0.1%, latanoprost 0.005%, PGE2 0.01%

## CC(C)OC(=O)CCC/C=C\C[C@@H]1[C@@H](CC[C@@H](O)CCc2ccccc2)[C@H](O)C[C@@H]1O [latanoprost]
[1]
  direct stimulation of inflammatory pathways involving adhesion molecules or class II antigens: None of the drugs appeared to induce direct stimulation of inflammatory pathways
  toxicity observed: mild
[2]; D-NAME treated control eyes, bimatoprost 0.1%, latanoprost 0.005%, scale 0=none, 0.5=trace, 1=mild, 2=moderate, 3=severe
  ocular surface hyperemic response (severity): trace to mild
[2]; [6]
  effect of L-NAME on elicited ocular surface hyperemia: blocked
Rabbit eye conjunctiva
  acute effects on blood flow in the conjunctiva: no significant acute effects

## COC(=O)[C@@H](N)CCCNC(=N)N[N+](=O)[O-] [L-NAME, L-N^G-nitroarginine methyl ester]
[2]
  conjunctival hyperemia or adverse ocular effects at baseline (time 0): did not produce conjunctival hyperemia or any adverse ocular effects

## CC(C)OC(=O)CCC/C=C\C[C@@H]1[C@@H](/C=C/[C@@H](O)COc2cccc(C(F)(F)F)c2)[C@H](O)C[C@@H]1O [travoprost]
[1]
  direct stimulation of inflammatory pathways involving adhesion molecules or class II antigens: None of the drugs appeared to induce direct stimulation of inflammatory pathways
  toxicity observed: mild

## COC(=O)[C@H](N)CCCN=C(N)N[N+](=O)[O-] [D-NAME]
[2]
  conjunctival hyperemia or adverse ocular effects at baseline (time 0): did not produce conjunctival hyperemia or any adverse ocular effects

## CCCCC[C@H](O)/C=C/[C@@H]1[C@@H](C/C=C\CCCC(=O)O)[C@@H](O)C[C@H]1O [PGF2a, prostaglandin F2a]
[3]
  inhibition of response by L-NAME at 100 μM, compared to bimatoprost and latanoprost free acid: less effective

## CCCCC[C@H](O)/C=C/[C@H]1[C@H](O)CC(=O)[C@@H]1C/C=C\CCCC(=O)O [PGE2, prostaglandin E2]
[2]; [6]
  effect of L-NAME on elicited ocular surface hyperemia: had no effect
[2]; PGE2 0.01%, both D-NAME- and L-NAME-treated eyes, scale 0=none to 3=severe
  ocular surface hyperemia severity: mild to moderate

## O=C(O)CCC/C=C\C[C@@H]1[C@H](CNNC(=O)Nc2ccccc2)[C@H]2CC[C@@H]1O2 [SQ 29548]
[4]; latanoprost free acid up to 10^−6 M
  effect of TP antagonist on reversal of the vasorelaxant response to latanoprost free acid: did not block the reversal of the vasorelaxant response

## O=C(O)CCC/C=C\C[C@@H]1[C@@H](CC[C@@H](O)CCc2ccccc2)[C@H](O)C[C@@H]1O [Latanoprost free acid, latanoprost free acid]
[4]; concentration range of 10^−10 to 10^−6 M
  contraction of the endothelium-denuded preparation: did not contract
[4]; endothelium-denuded, 10^−5M, latanoprost free acid
  response in endothelium-denuded veins: only contractions
[4]; endothelium-intact histamine precontracted tissues, P≦0.05 paired t-test
  vasorelaxant response in presence of 100 μM L-NAME compared to 100 μM D-NAME control: significantly inhibited
[4]; endothelium-intact preparation
  concentration of maximal vasorelaxation: 10^−7 M
  response at higher concentrations of 10^−6M and 10^−5M: reversal of the relaxant effects
[4]; endothelium-intact tissues, each concentration tested
  difference in effects with and without 1 μM indomethacin: no statistically significant differences

## CC(C)(C)NC[C@H](O)COc1nsnc1N1CCOCC1 [timolol maleate, (−)-1-tert-butylamino-3-[(4-morpholino-1,2,5-thiodiazol-3yl)oxy]-2-propanol maleate]
[5]
  mean laser-flare photometry readings and mean changes from baseline: no significant differences among the treatment groups
